Laboratory results as given in US20230174484A1, “ANTAGONISTS OF GPR39 PROTEIN” (Oregon Health & Science University, priority 2020, published 2023).
Entries after “also recorded” stand apart in the source; their conditions may differ.

What was measured:
human GPR39 receptor = molecular target: T1, human GPR39 receptor (Homo sapiens, UniProt O43194); assay: Measurement of intracellular calcium response in PC3 cells (FLIPR), antagonism of the C3 agonist response; type: cell-based; settings: for Ki: inhibition of the C3 (TC-G 1008) response at EC90, 30 μM ZnCl2, read-out: fpKi activity
T1 construct: PC3 Cells, Expressing the Endogenous Human GPR39 Receptor; endogenous in cells; host or cells: PC3 (human prostate adenocarcinoma) cells
T1 sequence (O43194 1-453): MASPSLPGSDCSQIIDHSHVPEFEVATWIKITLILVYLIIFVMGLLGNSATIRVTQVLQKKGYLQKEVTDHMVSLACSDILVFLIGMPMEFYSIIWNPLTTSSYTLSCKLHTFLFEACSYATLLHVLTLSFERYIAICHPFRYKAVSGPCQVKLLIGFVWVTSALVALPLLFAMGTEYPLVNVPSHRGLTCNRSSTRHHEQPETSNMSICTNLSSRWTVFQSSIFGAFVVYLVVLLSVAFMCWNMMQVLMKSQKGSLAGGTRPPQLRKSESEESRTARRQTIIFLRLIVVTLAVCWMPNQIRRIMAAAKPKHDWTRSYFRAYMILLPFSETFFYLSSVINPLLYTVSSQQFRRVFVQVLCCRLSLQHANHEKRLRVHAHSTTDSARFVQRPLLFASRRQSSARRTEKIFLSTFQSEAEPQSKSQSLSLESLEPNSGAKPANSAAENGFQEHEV
Procedure, shortened: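 Potency was reported as fpKi, converted by modified Cheng-Prusoff from four-parameter IC50 fits against an EC90 C3 agonist challenge. Calcium-6 FLIPR readings used PC3 cells naturally expressing human GPR39, in pH 7.4 HEPES buffer containing 30 μM final ZnCl2. Score bands: +/± <5.2, + 5.2–5.9, ++ 6.0–6.5, +++ 6.6–7.2, ++++ ≥7.3.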

[1] = tested on: spontaneously hypertensive rat (SHR); assay: Acute intravenous effect on blood pressure in the spontaneously hypertensive rat; type: in vivo; settings: for BP reduction, percentage of pre-administration baseline: lowest value over 10 min, isoflurane anaesthesia
Description: Decrease in BP was expressed as a percentage of baseline BP (*p<0.05).
The effect of acute intravenous administration of EXAMPLE 34 on BP in the spontaneously hypertensive rat (SHR) was determined. […] At 10 mg/kg, BP was reduced by 15%, and at 25 mg/kg, the reduction exceeded 20% of pre-administration baseline. EXAMPLE 34 was administered slowly via bolus injections through the jugular vein in a vehicle consisting of 100% PEG 400, and the change in BP after administration (lowest value over 10 min) was normalized to pre-administration baseline. This was the first proof of principle that pharmacological inhibition of GPR39 reduced BP acutely in a well-established animal model of hypertension.

[2] = tested on: wild-type mice, left coronary artery occlusion/reperfusion; assay: Infarct size after left coronary artery occlusion and reperfusion in mice; type: in vivo, mouse; settings: WT mice, single dose 15 min after occlusion, 45 min occlusion, 2 hr reperfusion, versus vehicle
Description: FIG. 3A depicts the timeline of experimental design. EXAMPLE 34 was given 15 min after left coronary occlusion as a single dose during a 45 min occlusion followed by 2 hr of reperfusion.
Infarct size in both FIG. 3C and FIG. 3D is expressed as a percent of AAR defined by Evans Blue. Summary data are depicted to the right of actual images from single representative animals.
The role of pericytes in tissue necrosis following coronary occlusion was examined (FIG. 3A).

[3] = tested on: wild-type mice, left coronary artery occlusion/reperfusion; assay: No reflow after coronary occlusion and reperfusion in mice (Thioflavin S / Evans Blue); type: in vivo, mouse; settings: WT mice, 1.5 mg/kg i.v. 15 min after occlusion, 45 min occlusion, 2 hr reperfusion, versus vehicle
Description: FIGS. 4A-4D depict no reflow data from WT, GPR39 KO, and EXAMPLE 34 mice. Thioflavin-S and Evans Blue were injected ante-mortem and measurement of no reflow (area without Evans Blue on the right panel). […] EXAMPLE 34 was given 15 min after coronary occlusion which lasted a total of 45 min followed by 2 hour reperfusion. The role of pericytes was examined in no reflow after reperfusion in a separate group of animals since infarct size and no reflow post-mortem cciuid not be measured in the same animals, Thioflavin S, a perfusion marker, was injected into the left coronary artery after reperfusion. Thereafter, the left coronary artery was briefly re-occluded and 0.2 ml Evan's blue (1%) injected. The heart was then excised, transversely sliced into 5-6 pieces and photographed under UV light (under which Thioflavin S fluoresces blue) to identify the area of no reflow and under standard lighting to identify the AAR, and the no reflow zone expressed as a percent of the AAR.

[4] = functional pKi (modified Cheng-Prusoff)

O=C(Nc1ccc(C(=O)N2CCN(c3ncnc4ccsc34)CC2)c(N2CCCCCC2)c1)C1CC1 [EXAMPLE 34, N-[3-(azepan-1-yl)-4-(4-thieno[3,2-d]pyrimidin-4-ylpiperazine-1-carbonyl)phenyl]Cyclopropanecarboxamide]
Ki (human GPR39 receptor; [4]): 1260 to 6310 nM
BP reduction, percentage of pre-administration baseline ([1]; 10 mg/kg i.v. bolus): 15%
BP reduction, percentage of pre-administration baseline ([1]; 25 mg/kg i.v. bolus): exceeded 20%
Effect on BP in SHR ([1]; i.v., concentrations higher than 10 mg/kg): significantly reduced BP
Infarct size/area at risk (AAR) ratio [2]: significantly smaller; also recorded: significant reduction in infarct size
No reflow zone / AAR ratio [3]: negligible no reflow zones; also recorded: significant reduction in no reflow/AAR ratio

O=C(Nc1ccc(C(=O)N2CCC3(CC2)CC3)c(N2CCCC2)c1)C1CC1 [Example 220, N-[4-(6-azaspiro[2.5]octane-6-carbonyl)-3-pyrrolidin-1-ylphenyl]cyclopropanecarboxamide]
Ki (human GPR39 receptor; [4]): 63.1 to 251 nM

CNc1nc(NCc2ccc(NS(C)(=O)=O)cc2Cl)cc(-c2ccccn2)n1 [Example C3, reference compound]
EC90 (human GPR39 receptor; PC-3, hGPR39 receptor agonist, calcium response, read-out: EC90 (concentration producing 90% of the maximal response)): 1500 nM

(2R or 2S) N-[6-(3,3-difluoropyrrolidin-1-yl)-5-(4-methyl-2-phenylpiperazine-1-carbonyl)pyridin-2-yl]cyclopropanecarboxamide [Example 148b]
fpKi activity (human GPR39 receptor; functional pKi (modified Cheng-Prusoff), inhibition of the C3 (TC-G 1008) response at EC90, 30 μM ZnCl2): + (An fpKi ranging from 5.2 to 5.9 is reported as “+”)
